Experimental data: patent US7615361B2, “Toxicity screening methods” (Ceetox, Inc., priority 2006, dated 2009)

How the values were obtained:
[1] = MTT reduction; assay type: cell-based; conditions: rat, NRK cells, read-out: MTT TC50
Source text: Tetrazolium Dye Reduction: 3-[4,5-dimethylthiazol-2-yl]
The third experiment was done to evaluate the specificity and selectivity of the test compound in another non-tumor cell that was derived from normal rat kidney tissue. In this experiment the test compound has no effect on cell number of acute cell death up to the 500 dilution after 6 and 24 hr of exposure (FIG. 76C and 77C). Significant effects were observed on mitochondrial markers at dilutions that dropped pH to 3.7. The bar graph in FIG. 82 summarizes these effects. […] In contrast the rat tumor cell line was sensitive to the test compound and cell death occurred at the 500 dilution and could not be attributed to low pH.

[2] = BrdU incorporation; assay type: cell-based, human; conditions: human, run #2, read-out: BrdU TC50; for CC50 at 24 h: SK-MEL28, 24 HR; for CC50 at 72 h: SK-MEL28, 72 HR
Description: Bromodexoyurine (BrDU) Incorporation: This assay was used to monitor cumulative changes in DNA replication. The assay uses the thymidine analog BrdU to measure S-phase of cell replication and is considered to be the Gold Standard for cell proliferation. BrDU (10 μM) was included in the test compound dosing solution to allow BrDU incorporation during cell replication. BrDU was included for the duration of the exposure, 24 hr. After completion of exposure period, the cells were fixed and labeled with mouse monoclonal anti-BrDU (FITC). Fluorescence was measured using a Packard Fusion or equivalent plate reader at 485 nm excitation and 530 nm emission.
Bromodexoyurine (BrDU) Incorporation: After incubation, the test compound/BrDU solution was removed and cells were fixed. A solution containing mouse monoclonal anti-BrDU (FITC) was added and fluorescence was measured. Data were collected as relative fluorescent units (RFU). The blank was subtracted from the final well RFU. It represents the average of the first and last columns which contain no cells on that particular plate. The controls are untreated cells allowed to grow on the same plate. The compounds are represented by several separate RFU data points for each of the tested concentrations. The percent change relative to controls was calculated by dividing the average RFU by the control cell RFU and multiplying by 100.
Experiments were also conducted to verify the relationship between exposure time and the observed cytostatic effects of the test compound. An additional assay was used to monitor cumulative change in DNA replication. The assay uses the thymidine analog BrdU to measure S-phase of cell replication and is considered to be the Gold Standard for cell proliferation. […] The BrdU assay paralleled the MTT and propidium iodide assays. The apparent lower sensitivity of the BrdU assay is a reflection of the experimental design not the assay. BrdU data represents a cumulative effect from the beginning of exposure while the other assays are measuring one is remaining at the end of either the 24 hr or 72 hr exposure period. […] There was a trend toward increasing activity in caspase-3, a marker for cell apoptosis.

[3] = Intracellular total glutathione (GSH); conditions: human
Description: (§1) Intracellular Glutathione (GSH) Levels: Intracellular glutathione levels were determined essentially as described by Griffith (1980) with modifications. At the end of the exposure period, the medium was removed from the cells and metaphosphoric acid (MPA) was added to each well. Plates were then shaken for 5 min at room temperature and stored at −20° C. until needed.
(§2) The sample plates were thawed just prior to analysis and centrifuged at >2000×g for at least 2 min. Sample aliquots were removed and transferred to a clean 96-well plate along with appropriate standard curve controls. Sample pH was neutralized just prior to analysis and each well received an aliquot of sodium phosphate reaction buffer containing EDTA, DTNB, NADPH, and glutathione reductase. The plates were mixed for 15-30 min at room temperature and glutathione content was determined calorimetrically with a Packard Fusion or equivalent reader at 415 nm.
(§3) Intracellular Glutathione (GSH) Levels: The assay is based on the concept that all GSH is oxidized to GSSG by DTNB reagent. Two molecules of GSH are required to make one molecule of GSSG. Total GSH was determined by reducing GSSG to 2GSH with glutathione reductase. A standard curve was prepared with oxidized glutathione (GSSG) over a range of concentrations. These concentrations are then converted to glutathione equivalents (GSX) essentially by multiplying the GSSG standard concentrations by 2. The amount of GSX expressed as pmoles/well was determined using the standard curve and regression analysis.
(§4) The test compound consisted of two parts mixed in a constant ratio of 5:1. The final test mixture consisted of Test mix 1 and Test mix 2, which were received as frozen solutions. The test mixture was tested in a ratio of 5:1 COMP A in five different cell types which included the following: SK-MEL28, human hepatocytes, HUVEC, C32, and NHEM cells. Cells were seeded into 96-well plates and cultured in medium containing 10% bovine serum. Following an equilibration period of 48 hr, the cells were treated with the test compound mix at concentrations of COMP A (μg/mL)=(250:50), (125:25), (25:12.5), (12.5:2.5), (2.5:1.25), (1.25:0.25), and (0.25:0.05) for 24 hr (overnight) at 37° C. in 5% CO2. […] Following an equilibration period of 4 hr, the cells were treated with the test compound mix at concentrations of COMP A (μg/mL)=(250:50), (125:25), (25:12.5), (12.5:2.5), (2.5:1.25), (1.25:0.25), and (0.25:0.05) for 24 hr (overnight) at 37° C. in 5% CO2.
(§5) Experimental Protocol: The test compounds were shipped on dry ice for testing. The compounds were stored frozen at −80° C. until needed. Dosing solutions were prepared in complete culture medium. SK-MEL28, human hepatocytes, HUVEC, C32, and NHEM cells were used as the test systems. Cells were seeded into 96-well plates and allowed to equilibrate for approximately 48 hr. Following the equilibration period the cells were exposed to the test compound mix at concentrations of COMP A (μg/mL)=(250:50), (125:25), (25:12.5), (12.5:2.5), (2.5:1.25), (1.25:0.25), and (0.25:0.05). […] Following the exposure period, the cells or their supernatant (culture medium) were analyzed for changes in cell proliferation, membrane leakage, mitochondrial function, oxidative stress, and apoptosis. The resultant exposure concentration response curves were graphed and analyzed for determining the concentration that produced a half maximal response or TC50.

[4] = test system: SK-MEL28 cells; test: Intracellular total glutathione (GSH)
Description: as §1, §2, §3, §4, §5

[5] = SK-MEL28, 24 HR, COMP A (LOW) / controls #2
[6] = SK-MEL28, 72 HR, COMP A (LOW) / controls #2

Row | SMILES | CC50 at 6 h [1] [µM] | CC50 at 24 h [1] [µM] | CC50 at 24 h ([2]; SK-MEL28 cells) [µM] | CC50 at 72 h ([2]; SK-MEL28 cells) [µM] | CC50 at 24 h ([3]; SK-MEL28 cells) [µM] | CC50 at 72 h ([3]; SK-MEL28 cells) [µM] | Percent Change in Total GSH ([4]; SK-MEL28, 24 HR) [%] | Percent Change in Total GSH [4, 5] [%] | Percent Change in Total GSH [4, 6] [%] | CC50 at 24 h [2] [µM] | CC50 at 72 h [2] [µM] | CC50 at 72 h [3] [µM]
1 | CC[C@@]1(O)C(=O)OCc2c1cc1n(c2=O)Cc2cc3ccccc3nc2-1 [CAMPTOTHECIN, Camptothecin] | 300 | 100 | 0.1 | 0.2 | 10 | 0.1 | −46.0 | −57.9 | −88.8 | – | – | –
2 | C=C(C)[C@H]1Cc2c(ccc3c2O[C@@H]2COc4cc(OC)c(OC)cc4[C@@H]2C3=O)O1 [ROTENONE, Rotenone] | 10 | 10 | – | – | – | – | 52.8 | 49.9 | 85.1 | 9 | 44 | 0.1
